Laboratory results from ChEMBL document CHEMBL1201862, “PubChem BioAssay data set” (2004).
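Each compound was tested at five concentrations against cells in 96-well plates for 48 hours. Here, GI50 denotes the concentration required for 50% inhibition of growth.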 The source made the active and inactive calls. Rule as the data show it: active = GI50 up to about 1.1 µM and inactive = higher.

Legend:
Assay in all cases: DTP human tumour cell line panel, 48 h
HCC 2998 = test system: HCC 2998
A498 = test system: A498
HOP-62 = test system: HOP-62
OVCAR-5 = test system: OVCAR-5
K562 = test system: K562
SF-268 = test system: SF-268
SN12C = test system: SN12C
OVCAR-3 = test system: OVCAR-3
IGROV-1 = test system: IGROV-1
UO-31 = test system: UO-31
CAKI-1 = test system: CAKI-1
HOP-92 = test system: HOP-92
HCT-15 = test system: HCT-15
HL-60 = test system: HL-60
OVCAR-8 = test system: OVCAR-8
NCI-H460 = test system: NCI-H460
SR = test system: SR
RXF 393 = test system: RXF 393
SK-MEL-2 = test system: SK-MEL-2

Row | SMILES | GI50 (HCC 2998) | GI50 (A498) | GI50 (HOP-62) | GI50 (OVCAR-5) | GI50 (K562) | GI50 (SF-268) | GI50 (SN12C) | GI50 (OVCAR-3) | GI50 (IGROV-1) | GI50 (UO-31) | GI50 (CAKI-1) | GI50 (HOP-92) | GI50 (HCT-15) [µM] | GI50 (HL-60) | GI50 (OVCAR-8) | GI50 (NCI-H460) | GI50 (SR) | GI50 (RXF 393) | GI50 (SK-MEL-2)
1 | CCCCCCCCCCCCCCCCCC(=O)NCCCNCCCNC(=O)CCCCCCCCCCCCCCCCC | > 100 µM (inactive) | > 100 µM (inactive) | > 100 µM (inactive) | > 100 µM (inactive) | > 100 µM (inactive) | > 100 µM (inactive) | > 100 µM (inactive) | 37.3 µM (inactive) | > 100 µM (inactive) | > 100 µM (inactive) | > 100 µM (inactive) | > 100 µM (inactive) | > 100 | > 100 µM (inactive) | > 100 µM (inactive) | > 100 µM (inactive) | – | – | –
2 | O=[N+]([O-])c1ccc2c(c1)OCCOCCOc1ccc([N+](=O)[O-])cc1OCCOCCO2 | > 100 µM (inactive) | > 100 µM (inactive) | > 100 µM (inactive) | > 100 µM (inactive) | > 100 µM (inactive) | > 100 µM (inactive) | > 100 µM (inactive) | > 100 µM (inactive) | > 100 µM (inactive) | > 100 µM (inactive) | > 100 µM (inactive) | – | > 100 | > 100 µM (inactive) | > 100 µM (inactive) | > 100 µM (inactive) | > 100 µM (inactive) | > 100 µM (inactive) | > 100 µM (inactive)
3 | COP1(=O)CC2C(Cl)(Cl)C2(C)C1 (centres undefined) | > 100 µM (inactive) | – | > 100 µM (inactive) | – | > 100 µM (inactive) | > 100 µM (inactive) | > 100 µM (inactive) | > 100 µM (inactive) | > 100 µM (inactive) | – | – | – | – | > 100 µM (inactive) | > 100 µM (inactive) | > 100 µM (inactive) | – | > 100 µM (inactive) | –
4 | Cc1c(C(Cc2ccccc2N(C)C(=O)/C=C\C(=O)O)c2c[nH]c3ccccc23)c2ccccc2n1C (centres undefined) | 16.3 µM (inactive) | 17.9 µM (inactive) | 16.2 µM (inactive) | 21.2 µM (inactive) | 18.7 µM (inactive) | 20.6 µM (inactive) | 16 µM (inactive) | 12.3 µM (inactive) | 18.2 µM (inactive) | 14.5 µM (inactive) | 19.3 µM (inactive) | – | 14.3 | 4.66 µM (inactive) | 13.2 µM (inactive) | 15.3 µM (inactive) | 16.9 µM (inactive) | 14.2 µM (inactive) | > 10 µM (inactive)
5 | CC(C)(C)c1cc(CCC(=O)Nc2ccc(Cl)cc2)nc(S)n1 | > 100 µM (inactive) | – | > 100 µM (inactive) | > 100 µM (inactive) | > 100 µM (inactive) | > 100 µM (inactive) | > 100 µM (inactive) | > 100 µM (inactive) | > 100 µM (inactive) | > 100 µM (inactive) | > 100 µM (inactive) | – | > 100 | > 100 µM (inactive) | > 100 µM (inactive) | > 100 µM (inactive) | – | > 100 µM (inactive) | > 100 µM (inactive)
6 | COc1ccc(/C=C2/C[N+](C)(C)C/C(=C/c3ccc(OC)cc3)C2=O)cc1 | 15.3 µM (inactive) | 68.4 µM (inactive) | > 100 µM (inactive) | > 68.7 µM (inactive) | 11.6 µM (inactive) | 26.9 µM (inactive) | 36.1 µM (inactive) | 30 µM (inactive) | 23.9 µM (inactive) | > 100 µM (inactive) | > 100 µM (inactive) | 52.1 µM (inactive) | > 100 | 14.7 µM (inactive) | 31.9 µM (inactive) | 38.2 µM (inactive) | – | > 100 µM (inactive) | 25.6 µM (inactive)
7 | NC(Cc1ccccc1)C(=O)OCN1C(=O)C2C3C=CC(C2C1=O)C1C2C(=O)N(COC(=O)C(N)Cc4ccccc4)C(=O)C2C31 (centres undefined) | – | – | – | 35.5 µM (inactive) | 29.6 µM (inactive) | 17.4 µM (inactive) | 20.8 µM (inactive) | 28.4 µM (inactive) | 23.9 µM (inactive) | – | – | 41.8 µM (inactive) | 17.6 | 32.2 µM (inactive) | 20.2 µM (inactive) | 16.3 µM (inactive) | – | 22.1 µM (inactive) | –
8 | O=C1C=Cc2ncccc2C1=O | > 48.1 µM (inactive) | > 54 µM (inactive) | > 54.8 µM (inactive) | > 44.2 µM (inactive) | 7.71 µM (inactive) | 34.4 µM (inactive) | 21.2 µM (inactive) | 23.9 µM (inactive) | 32.2 µM (inactive) | 30.5 µM (inactive) | 21.1 µM (inactive) | 21.1 µM (inactive) | 18.1 | 5.22 µM (inactive) | 16.3 µM (inactive) | 20 µM (inactive) | – | 20 µM (inactive) | 18.5 µM (inactive)
9 | Cc1cc2c(cc1C)[n+]([O-])c(C(=O)/C=C/c1ccc(Cl)cc1)c(C)[n+]2[O-] | 23.5 µM (inactive) | 26.7 µM (inactive) | 24.4 µM (inactive) | 42.3 µM (inactive) | 33.6 µM (inactive) | > 10 µM (inactive) | 32.8 µM (inactive) | 33 µM (inactive) | 24.5 µM (inactive) | 17.9 µM (inactive) | 32.3 µM (inactive) | 28.6 µM (inactive) | 33 | 24 µM (inactive) | 29.7 µM (inactive) | 25.9 µM (inactive) | – | – | 29.5 µM (inactive)
